Results published in US5126365A, “Bicyclic derivatives” (Imperial Chemical Industries PLC, priority 1989, dated 1992).
pIC50: −log10 of the molar value.

Columns and labels:
5-LO [1] = assay: Test b) in vitro heparinised human blood challenged with A23187, LTB4 radioimmunoassay (5-LO); format: cell-based; details: A23187 challenge
Method: b) An in vitro assay system involving incubating a test compound with heparinised human blood, prior to challenge with the calcium ionophore A23187 and then indirectly measuring the inhibitory effects on 5-LO by assaying the amount of LTB4 using the specific radioimmunoassay described by Carey and Forder (F. Carey and R. A. Forder, Brit. J. Pharmacol. 1985, 84, 34P) which involves the use of a protein-LTB4 conjugate produced using the procedure of Young et alia (Prostaglandins, 1983, 26(4), 605-613). The effects of a test compound on the enzyme cyclooxygenase (which is involved in the alternative metabolic pathway for arachidonic acid and gives rise to prostaglandins, thromboxanes and related metabolites) may be measured at the same time using the specific radioimmunoassay for thromboxane B2 (TxB2) described by Carey and Forder (see above). This test provides an indication of the effects of a test compound against 5-LO and also cyclooxygenase in the presence of blood cells and proteins. It permits the selectivity of the inhibitory effect on 5-LO or cyclooxygenase to be assessed.

5-LO [2] = assay: Test c) ex vivo assay: administration of test compound, blood collection, A23187 challenge, radioimmunoassay of LTB4; format: in vivo; details: oral
Method: c) An ex vivo assay system, which is a variation of test b) above, involving administration of a test compound (usually orally as the suspension produced when a solution of the test compound in dimethylsulphoxide is added to carboxymethylcellulose), blood collection, heparinisation, challenge with A23187 and radioimmunoassay of LTB4 and TxB2. This test provides an indication of the bioavailability of a test compound as an inhibitor of 5-LO or cyclooxygenase.

5-LO [3] = assay: Test g) liberation of LTB4 induced by zymosan within an air pouch in male rats; format: in vivo; details: oral, rat zymosan air pouch, 3 hours
Method: g) An in vivo system involving measuring the effects of a test compound administered orally against the liberation of LTB4 induced by zymosan within an air pouch generated within the subcutaneous tissue of the back of male rats. The rats are anaesthetised and air pouches are formed by the injection of sterile air (20 ml). A further injection of air (10 ml) is similarly given after 3 days. At 6 days after the initial air injection the test compound is administered (usually orally as the suspension produced when a solution of the test compound in dimethylsulphoxide is added to hydroxypropylmethylcellulose), followed by the intrapouch injection of zymosan (1 ml of a 1% suspension in physiological saline). After 3 hours the rats are killed, the air pouches are lavaged with physiological saline, and the specific radioimmunoassay described above is used to assay LTB4 in the washings. This test provides an indication of inhibitory effects against 5-LO in an inflammatory milieu.

- pIC50 (5-LO [1]): 6.52
SMILES: COC1(c2ccc3c(c2)OC(c2ccc4ccccc4c2)O3)CCOCC1 (stereo not drawn) [5-(4-methoxytetrahydropyran-4-yl)-2-(naphth-2-yl)benzo-1,3-dioxole]
- ED50 (5-LO [2]): 5 mg/kg
- ED50 (5-LO [3]): < 3 mg/kg
